Results as given in PMC7139549, “TLD1433 Photosensitizer Inhibits Conjunctival Melanoma Cells in Zebrafish Ectopic and Orthotopic Tumour Models” (Cancers, 2020).
Like-named read-outs stand apart in the source and are kept apart here.

What was measured:
[1] = test system: CM2005.1 conjunctival melanoma cell line; assay: SRB cell viability assay, CM2005.1; format: cell-based, Human
Procedure: TLD1433 is known to generate reactive oxygen species (ROS) with high quantum efficacy in many cancer cell lines. However, there is no report of the in vitro toxicity of this compound in eye melanoma (UM) cell lines. We determined the cell viability of three conjunctival melanoma cell lines (CRMM1, CRMM2 and CM2005.1), and three uveal melanoma cell lines (OMM1, OMM2.5, MEL270) in the presence of TLD1433, both in the dark or under green light irradiation (21 mW/cm^2, 19 J/cm^2, 520 nm, 15 min), and compared this viability to epidermoid carcinoma A431 and cutaneous melanoma A375 cell lines under the same conditions. The protocol used was based on previous work from the Bonnet group, and differed slightly from recommendations from McFarland et al.. […] The effective concentration (EC50) values, i.e., the concentration required to reduce cell viability by 50% compared to untreated wells, were assessed by fitting the dose-response curves with a Hill equation. The phototoxicity index (PI), defined as the ratio of the dark EC50 to the light EC50, was also calculated and represents the amplification of TLD1433 activity with a light trigger. […]
Figure 2 Cell viability after TLD1433 treatment of eight tumour cell lines (CRMM1, CRMM2, CM2005.1, OMM1, OMM2.5, MEL270, A431, A375). […] The absorbance of Sulforhodamine B in solution was measured at 520 nm. […]
At day 0, cells were detached using 1mL of trypsin, resuspended in 4 mL of media and transferred to a 15 mL corning falcon tube. Cells were counted using trypan blue and BioRad® TC20™ automated cell counter (Figure 11). Dilutions of 6000 (CRMM1), 6000 (CRMM2), 8000 (CM2005.1), 6000 (OMM1), 6000 (OMM2.5), 6000 (MEL270) 8000 (A431), and 4000 (A375) cells/well were calculated from each cell suspension at a final volume of 6 mL using the following formula: Vc=(Vt×10C)/Lc where Vt = total volume of solution, C = number of cells per well/per 100 μL and Lc = live cells count (cells/mL). […] Next day, the dye was dissolved using Tri-base (0.25%) and absorbance of SRB at 510 nm was recorded from each well using a Tecan plate reader. […]

[2] = test system: wild type zebrafish embryos; assay: Maximum tolerated dose in wild type zebrafish embryos; format: in vivo; details: for Maximum Tolerated Dose (MTD): Wild Type Embryos, 4 treatments, 90 min green light 114 J.cm^−2; for concentration not toxic to embryos in the dark: wild type embryos
Procedure: Water administration (WA) of drugs by skin epithelial cell absorption and drinking is commonly used in zebrafish drug experiments. […] In addition, we also tested IV of TLD1433 by direct injection into the dorsal vein, as well behind the eye injections for RO administration. For IV and RO administration, the compound was injected four times into the embryos at 3, 4, 5 and 6dpf, followed by 60 min drug-to-light interval and the same kinetic and irradiation regime as for the WA administration (Figure 5A).
(A) Schedule of TLD1433 treatment in wild type zebrafish. […] (B) WA, (C) IV, (D) RO. (B–D) Images were made of irradiated (light) and non-irradiated (dark) embryos (n = 30) at 6dpf and the percentages of mortality, malformation and fish length were calculated (shown as means ± SD from three independent experiments). Representative images of embryos under dark and light conditions are shown.
At 2.5, 3.5, 4.5, 5.5 dpf, TLD1433 was added to the fish water and maintained for 12 h. […] At 3, 4, 5, 6 dpf, 1nL of TLD1433 was injected via the dorsal vein or the RO site and maintained for 1 h. […] The images of treated and wild type embryos at 6 dpf were taken using a DFC420C camera coupled to a Leica MZ16FA fluorescence microscope. In order to determine the MTD of tumour cell bearing zebrafish, TLD1433 was performed according to the same procedure, delivered by WA, IV and […] administration as described above for the wild type embryos.

Cc1ccnc(-c2cc(C)ccn2)c1.Cc1ccnc(-c2cc(C)ccn2)c1.[Cl-].[Cl-].[Ru+2].c1csc(-c2ccc(-c3ccc(-c4nc5c6cccnc6c6ncccc6c5[nH]4)s3)s2)c1 [TLD1433]
EC50 ([1]; CM2005.1, dark, 24 h treatment, SRB, read-out: EC50, dark): 1100 nM | EC50 ([1]; CM2005.1, green light 520 nm, 15 min, 21 mW/cm^2, 19 J.cm^−2, DLI 24 h, read-out: EC50,light): 5.8 nM | PI (photo index) ([1]; CM2005.1, ratio of dark and light EC50, 19 J.cm^−2 green light): 190 | Maximum Tolerated Dose (MTD) ([2]; Intravenous 1 nL, 60 min DLI): 4.6 mM | Maximum Tolerated Dose (MTD) ([2]; Retro-orbital 1 nL, 60 min DLI): 4.6 mM | Maximum Tolerated Dose (MTD) ([2]; Water administration, 12 h DLI): 9.2e-06 mM | concentration not toxic to embryos in the dark ([2]; IV 1 nL): 11500 µM | concentration not toxic to embryos in the dark ([2]; RO 1 nL): 11500 µM | concentration not toxic to embryos in the dark ([2]; WA): 0.023 µM
